Where a name gives a salt, the structure may show the parent alone.
Columns and labels:
[1] = tested on: spontaneously hypertensive rats; assay: hypotensive activity in spontaneously hypertensive rats (mean arterial blood pressure); type: in vivo, spontaneously hypertensive rats of the Okamoto strain; settings: by gavage, 100 mg/kg or less, two doses 24 hours apart, measured 28 hours after the initial dose; starting average MABP 160±1.5 mm; number of rats in parentheses
Experimental: The novel compounds of the present invention are also active hypotensive agents and were tested for hypotensive activity by the method of P. S. Chan and D. Poorvin, Clinical and Experimental Hypertension, 1 (6), 817-830 (1979). Male, 16 week old, spontaneously hypertensive rats of the Okamoto strain, from Taconic Farms, Germantown, N.Y. having an average mean arterial blood pressure of 160±1.5 mm of mercury were used in the test. One to 3 rats were used per test compound. The rats were dosed by gavage with a test compound, suspended in 2% pre-boiled starch at a concentration of 50 mg/ml, at a dose of 100 mg/kg of body weight or less, with 0.9% sodium chloride loading at a dose of 25 ml/kg of body weight. A second identical dose of the test compound, without sodium chloride loading was given 24 hours later. At 28 hours after the initial dose, the mean arterial blood pressure (MABP) was measured by the method of Chan and Poorvir vide supra. The procedure was repeated in a second and third rat when necessary as specified in the referenced method.

thromboxane synthetase = target: T1, thromboxane synthetase (Rattus norvegicus, UniProt P49430); assay: inhibition of thromboxane (TX) formation in platelets (TXB2 by radioimmunoassay); type: cell-based, Okamoto-Aoki spontaneously hypertensive rats (SHR); settings: drug at 10^-4 M, 10 minutes at 37° C., washed SHR platelets, TXB2 RIA
T1 construct: The platelets were isolated by centrifuging the PRP for 10 minutes; endogenous in cells; host or cells: washed platelets from arterial blood of Okamoto-Aoki spontaneously hypertensive rats (Taconic Farms, Germantown, N.Y.)
T1 sequence (P49430 1-533): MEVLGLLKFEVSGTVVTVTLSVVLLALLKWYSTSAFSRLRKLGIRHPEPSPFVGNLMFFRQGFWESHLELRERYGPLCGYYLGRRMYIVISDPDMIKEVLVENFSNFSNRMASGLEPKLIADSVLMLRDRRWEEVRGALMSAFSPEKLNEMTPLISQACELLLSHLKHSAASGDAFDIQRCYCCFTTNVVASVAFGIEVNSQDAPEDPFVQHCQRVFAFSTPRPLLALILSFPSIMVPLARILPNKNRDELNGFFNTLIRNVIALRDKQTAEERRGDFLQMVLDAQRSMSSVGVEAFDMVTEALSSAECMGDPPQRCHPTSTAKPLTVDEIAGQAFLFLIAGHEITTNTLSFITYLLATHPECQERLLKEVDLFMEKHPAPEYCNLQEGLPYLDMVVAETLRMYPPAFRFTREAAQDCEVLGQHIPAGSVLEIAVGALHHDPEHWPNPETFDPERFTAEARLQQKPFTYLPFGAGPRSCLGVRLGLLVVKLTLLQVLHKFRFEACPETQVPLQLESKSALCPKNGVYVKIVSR
Experimental: From Okamoto-Aoki spontaneously hypertensive rats (SHR) (Taconic Farms, Germantown, N.Y.) between 19 and 24 weeks in age, under urethan anesthesia, […] of arterial blood was collected in one ml of 3.2% sodium citrate a polystyrene tube. The blood was diluted with 3 ml cold saline and centrifuged at room temperature for 15 minutes at 460×g. The platelet rich plasma (PRP) was separated. The platelets were isolated by centrifuging the PRP for 10 minutes at 1060×g nd were washed in 4 ml cold oxygenated Krebs phosphate buffer, pH 7.4. The chilled platelets recovered from centrifuging at 800×g for 10 minutes were resuspended in oxygenated Krebs phosphate buffer and diluted to contain 4.5-6.0×10^4 platelets/μl. The inhibition of thromboxane (TX) formation was studied by determining the concentration of thromboxane B2 (TXB2), the stable hydrolysis product of TXA2. Assay samples, prepared on ice, contained 200 μl platelet suspension, 50 μl saline, and 50 μl vehicle or drug under study at a concentration of 10^-4 M (with OKY-1581, UK-3724801, 1-benzylimidazole, and/or indometha standards). The samples were incubated for 10 minutes at 37° C. in a metabolic shaker. The reaction was terminated by immersing the tubes in an ice bath and adding 50 μl of 0.5M citric acid. The samples were centrifuged for 10 minutes in a refrigerated centrifuge and the supernatants thus obtained were decanted and stored at -20° C. The TXB2 content for each sample was determined by a direct radioimmunoassay (RIA) utilizing a TXB2 specific RIA kit purchased from New England Nuclear, Boston, Mass. and results expressed as pg TXB2 formed minute^-1 sample^-1, from which the percent inhibition of TXB2 formation was calculated.

ischemic myocardium = settings: canines; cited from earlier work
[2] = tested on: coronary arteries of guinea pigs and rabbits; settings: cited from earlier work

SMILES | inhibition at 100 µM (thromboxane synthetase) | MABP/mm Hg (no. of rats) [1] | also measured
O=C1c2cccc3cccc(c23)C(=O)N1CCCn1ccnc1 [2-[3(1 --H--imidazol-1-yl)propyl]-1 --H--benz[de]isoquinoline-1,3(2 --H)--dione] | 89% | 103 mm Hg | –
O=C1c2cccc3cccc(c23)C(=O)N1CCCn1cncn1 [2-[3-(1 --H--1,2,4-triazol-1-yl)-propyl]-1 --H--benz[de]isoquinoline-1,3(2 --H)--dione] | 96% | – | –
O=C1c2cccc3cccc(c23)C(=O)N1C(CCn1ccnc1)c1ccccc1 (stereo not shown) [2-[3-(1 --H--imidazol-1-yl)-1-phenyl-propyl]-1 --H--benz[de]isoquinoline-1,3(2 -- H)--dione] | 97% | – | –
CC(CN1C(=O)c2cccc3cccc(c23)C1=O)Cn1ccnc1 (stereo not shown) [2-[3-(1 --H--imidazol-1-yl)-2-methyl-propyl]-1 --H--benz[de]isoquinoline-1,3(2 --H)--dione] | 99% | 134 mm Hg | –
CC(CN1C(=O)c2cccc3cc([N+](=O)[O-])cc(c23)C1=O)Cn1ccnc1 (stereo not shown) [2-[3-(1 --H--imidazol-1-yl)-2-methyl-propyl]-5-nitro-1 --H--benz[de]-isoquinoline-1,3(2 --H)--dione] | 100% | – | –
CC(CCN1C(=O)c2cccc3cccc(c23)C1=O)n1ccnc1 (stereo not shown) [2-[3-(1 --H--imidazol-1-yl)butyl]-1 --H--benz[de]isoquinoline-1,3(2 --H)--dione] | 97% | 120 mm Hg | –
CC(CCN1C(=O)c2cccc3cc([N+](=O)[O-])cc(c23)C1=O)n1ccnc1 (stereo not shown) [2-[3-(1 --H--imidazol-1-yl)butyl]-5-nitro-1 --H--benz[de]isoquinoline-1,3(2 --H)--dione] | 100% | – | –
O=C1c2cccc3cc([N+](=O)[O-])cc(c23)C(=O)N1CCCn1ccnc1 [2-[3-(1 --H--imidazol-1-yl)propyl]-5-nitro-1 --H--benz[de]isoquinoline-1,3(2 --H)--dione] | 100% | 97 mm Hg | –
Cc1cn(CCCN2C(=O)c3cccc4cccc(c34)C2=O)cn1 [2-[3-(4-methyl-1 --H--imidazol-1-yl)-propyl]-1 --H--benz[de]isoquinoline-1,3(2 --H)--dione] | 98% | – | –
O=C1c2cccc3cccc(c23)C(=O)N1CCCCn1ccnc1 [2-[4-(1H-Imidazol-1-yl)butyl]-1H-benz-[de]isoquinoline-1,3(2H)-dione] | 96% | 106 mm Hg | –
CCCCC[C@H](O)/C=C/[C@@H]1[C@H]2C/C(=C/CCCC(=O)O)O[C@H]2C[C@H]1O [PGI2, Prostacyclin] | – | – | effects on ischemic myocardium (ischemic myocardium): beneficial effects
CCCCC[C@H](O)/C=C/[C@H]1O[C@H]2C[C@H](O2)[C@@H]1C/C=C\CCCC(=O)O [TXA2, thromboxane A2] | – | – | effect of injection into coronary arteries [2]: causes myocardial ischemia and subendocardial necrosis

Further lines, with some results ahead:

inhibition at 100 µM (thromboxane synthetase) | SMILES | MABP/mm Hg (no. of rats) [1] | also measured
97% | O=C1c2cccc3cc([N+](=O)[O-])cc(c23)C(=O)N1CCCCn1ccnc1 [2-[4-(1H-Imidazol-1-yl)butyl]-5-nitro-1H-benz[de]isoquinoline-1,3(2H)-dione] | 123 mm Hg | –
98% | O=C1c2cccc3cccc(c23)C(=O)N1CCCCc1cccnc1 [2-[4-(3-pyridinyl)butyl]-1 --H--benz[de]isoquinoline-1,3(2 --H)--dione] | 137 mm Hg | –
100% | O=C1c2cccc3cccc(c23)C(=O)N1CCCCCn1ccnc1 [2-[5-(1 --H--imidazol-1-yl)pentyl)-1 --H--benz[de]isoquinoline-1,3(2 --H)--dione] | – | –
98% | O=C1c2cccc3cc([N+](=O)[O-])cc(c23)C(=O)N1CCCCCn1ccnc1 [2-[5-(1 --H--imidazol-1-yl)pentyl)-5-nitro-1 --H--benz[de]isoquinoline-1,3(2 --H)--dione] | – | –
98% | O=C1c2cccc3cccc(c23)C(=O)N1CCCCCCCCn1ccnc1 [2-[8-(1H-Imidazol-1-yl)octyl]-1H-benz[de]isoquinoline-1,3(2H)-dione] | – | –
94% | O=C1c2cccc3cc([N+](=O)[O-])cc(c23)C(=O)N1CCc1cccnc1 [5-Nitro-2-[2-(3-pyridinyl)ethyl]-1 --H--benz[de]isoquinoline-1,3(2 --H)--dione] | – | –
94% | O=C1c2cccc3cc([N+](=O)[O-])cc(c23)C(=O)N1CCCn1cncn1 [5-Nitro-2-[3-(1 --H--1,2,4-triazol-1-yl)propyl]-1 --H--benz[de]isoquinoline-1,3(2 --H)--dione] | 127 mm Hg | –
89% | O=C1c2cccc3cc([N+](=O)[O-])cc(c23)C(=O)N1CCCn1ccnc1-c1ccccc1 [5-Nitro-2-[3-(2-phenyl-1 --H--imidazol-1-yl)propyl]-1 --H-- benz[de]-isoquinoline-1,3(2 --H)--dione] | – | –
94% | O=C1c2cccc3cc([N+](=O)[O-])cc(c23)C(=O)N1CCCCc1cccnc1 [5-nitro-2-[4-(3-pyridinyl)butyl]-1 --H--benz[de]isoquinoline-1,3(2 --H)--dione] | – | –
96% | Nc1ccc2c3c(cccc13)C(=O)N(CCCCn1ccnc1)C2=O [6-Amino-2-[4-(1 --H--imidazol-1-yl)butyl]-1 --H--benz[de]isoquinoline-1,3-(2 --H)--dione dihydrochloride] | 115 mm Hg | –
95% | O=C1c2cccc3c(Cl)ccc(c23)C(=O)N1CCCn1ccnc1 [6-Chloro-2-[3(1 --H--imidazol-1-yl)-propyl]-1 --H--benz[de]isoquinoline-1,3(2 --H)--dione monohydrochloride] | – | –
96% | O=C1c2cccc3c(Cl)ccc(c23)C(=O)N1CCCCn1ccnc1 [6-Chloro-2-[4-(1H-imidazol-1-yl)butyl]-1H-benz[de]isoquinoline-1,3(2H)-dione monohydrochloride] | – | –
94% | O=C1c2cccc3c(Cl)ccc(c23)C(=O)N1CCCCCn1ccnc1 [6-Chloro-2-[5-(1 --H--imidazol-1-yl)pentyl]-1 --H--benz[de]isoquinoline-1,3-(2 --H)--dione] | – | –
